Assay results taken from patent publication US20070265170A1, “DETECTION, PREVENTION AND TREATMENT OF OVARIAN CANCER” (priority 2006, published 2007).

B1: Ceruloplasmine (protein, UniProt P00450 20-1065, looked up)
Ceruloplasmin: KEKHYYIGIIETTWDYASDHGEKKLISVDTEHSNIYLQNGPDRIGRLYKKALYLQYTDETFRTTIEKPVWLGFLGPIIKAETGDKVYVHLKNLASRPYTFHSHGITYYKEHEGAIYPDNTTDFQRADDKVYPGEQYTYMLLATEEQSPGEGDGNCVTRIYHSHIDAPKDIASGLIGPLIICKKDSLDKEKEKHIDREFVVMFSVVDENFSWYLEDNIKTYCSEPEKVDKDNEDFQESNRMYSVNGYTFGSLPGLSMCAEDRVKWYLFGMGNEVDVHAAFFHGQALTNKNYRIDTINLFPATLFDAYMVAQNPGEWMLSCQNLNHLKAGLQAFFQVQECNKSSSKDNIRGKHVRHYYIAAEEIIWNYAPSGIDIFTKENLTAPGSDSAVFFEQGTTRIGGSYKKLVYREYTDASFTNRKERGPEEEHLGILGPVIWAEVGDTIRVTFHNKGAYPLSIEPIGVRFNKNNEGTYYSPNYNPQSRSVPPSASHVAPTETFTYEWTVPKEVGPTNADPVCLAKMYYSAVEPTKDIFTGLIGPMKICKKGSLHANGRQKDVDKEFYLFPTVFDENESLLLEDNIRMFTTAPDQVDKEDEDFQESNKMHSMNGFMYGNQPGLTMCKGDSVVWYLFSAGNEADVHGIYFSGNTYLWRGERRDTANLFPQTSLTLHMWPDTEGTFNVECLTTDHYTGGMKQKYTVNQCRRQSEDSTFYLGERTYYIAAVEVEWDYSPQREWEKELHHLQEQNVSNAFLDKGEFYIGSKYKKVVYRQYTDSTFRVPVERKAEEEHLGILGPQLHADVGDKVKIIFKNMATRPYSIHAHGVQTESSTVTPTLPGETLTYVWKIPERSGAGTEDSACIPWAYYSTVDQVKDLYSGLIGPLIVCRRPYLKVFNPRRKLEFALLFLVFDENESWYLDDNIKTYSDHPEKVNKDDEEFIESNKMHAINGRMFGNLQGLTMHVGDEVNWYLMGMGNEIDLHTVHFHGHSFQYKHRGVYSSDVFDIFPGTYQTLEMFPRTPGIWLLHCHVTDHIHAGMETTYTVLQNEDTKSG

Columns and labels:
β3GlcNAcT = β3GlcNAcT acceptor specificity; settings: acceptor substrate; lactose (4) = 100%
chicken ST6GalNAc-I = biological target: T1, chicken ST6GalNAc-I (Gallus gallus, UniProt Q92183); experiment: chST6GalNAc-I activity on small acceptor molecules; type: biochemical; settings: α-D-galacto derivatives as acceptors
T1 construct: made in house; host or cells: insect cells
Source text: The inventors have previously reported the cloning, expression, and characterization of chicken ST6GalNAc-I and its use in preparative synthesis of the O-linked sialoside antigens, STn-, α(2-6)SiaT-, α(2-3)SiaT- and Di-SiaT-antigen. Blixt, O.; Allin, K.; Pereira, L.; Datta, A. and Paulson, J. C., J. Am. Chem. Soc. 2002, 124, 5739-5746. Briefly, the recombinant enzyme was expressed in insect cells and purified by CDP-sepharose affinity chromatography to generate approximately 10 U/L of cell culture.

[1] = tested on: anti-carbohydrate antibodies in sera of metastatic breast cancer patients; experiment: Glycan array with sera of metastatic breast cancer patients; type: binding, human; settings: sera diluted 1:25; for binding by antibodies from metastatic breast cancer patients: 9 MBC patients; for level of serum antibodies against the glycan in MBC patients compared to healthy individuals: relative fluorescence, FIG. 8-9
Description: Individual (not pooled) sera were collected from 9 patients who were diagnosed with metastatic breast cancer (MBC). Blood samples were collected before treatment, so that therapeutic intervention would not interfere with patient immune responses. One patient with breast cancer but with good prognosis (IDC, Stage 1) was also included in the study. As control, or “healthy” sera, sera from ten healthy individuals, 5 female and 5 male, with no known malignancies was collected.
Sera were diluted 1:25 with PBS containing 3% BSA, and placed on the glycan array slide in humidified chamber at room temperature for 90 min. The glycan array slide was then rinsed gently with PBS/0.05% Tween, incubated with biotinylated goat antibody against human IgG, IgM and IgA, rinsed in PBS/0.05% Tween, and incubated with streptavidin-Alexa488 fluorescent dye. Following rinses in PBS/0.05% Tween and H2O, glycan array slides were dried and scanned using the commercial DNA array scanner. […] Signal to background was typically greater 50:1 and no background subtractions were performed. Data were plotted using MS Excel software.

[2] = tested on: Human anti-HIV 2G12 monoclonal antibody; experiment: Glycan array binding of 2G12; settings: 2G12 30 μg/mL pre-complexed with goat anti-human-IgG-FITC
Source text: Glycan array fabrication.
Glycan Binding Protein binding assay.
Image acquisition and signal processing. […] Data were plotted using MS Excel software.

T1 sequence (Q92183 whole entry): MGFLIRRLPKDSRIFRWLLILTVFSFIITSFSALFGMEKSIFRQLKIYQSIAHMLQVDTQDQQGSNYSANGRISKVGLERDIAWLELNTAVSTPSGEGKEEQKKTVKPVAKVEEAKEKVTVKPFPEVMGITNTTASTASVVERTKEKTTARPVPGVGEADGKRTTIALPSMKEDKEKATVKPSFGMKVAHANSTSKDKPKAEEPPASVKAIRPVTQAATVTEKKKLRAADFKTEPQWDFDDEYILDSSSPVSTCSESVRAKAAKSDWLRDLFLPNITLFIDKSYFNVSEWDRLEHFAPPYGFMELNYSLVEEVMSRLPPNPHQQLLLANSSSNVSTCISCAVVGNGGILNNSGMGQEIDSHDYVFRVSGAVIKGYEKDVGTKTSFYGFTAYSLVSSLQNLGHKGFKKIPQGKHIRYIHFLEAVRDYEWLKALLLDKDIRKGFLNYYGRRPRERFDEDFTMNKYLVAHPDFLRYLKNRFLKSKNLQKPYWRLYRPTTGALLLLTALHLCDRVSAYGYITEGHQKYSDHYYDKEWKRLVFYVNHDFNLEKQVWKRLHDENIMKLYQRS

Row | Molecule | binding by antibodies from metastatic breast cancer patients [1] | level of serum antibodies against the glycan in MBC patients compared to healthy individuals [1] | further results
1 | OCC1O[C@@H](O)C(O)[C@@H](O)[C@@H]1O[C@@H]1OC(CO)[C@H](O)[C@H](O)C1O (stereo partly drawn) [Compound 4] |  |  | Relative enzyme activity (%) β(1-3)GlcNAcT-activity (β3GlcNAcT): 100%
2 | CC(=O)N[C@H]1C(O)O[C@H](CO)[C@H](O)[C@@H]1O (stereo partly drawn) [D-GalNAc] |  |  | chST6GalNac-I Activity, cpm (chicken ST6GalNAc-I): 0 cpm; chST6GalNac-I Activity, nmol/mg × min^−1 (chicken ST6GalNAc-I): 0.00 nmol/mg × min^−1
3 | Ab3ANb4[NNa3]Ab4Gb#sp1 GM1 [Glycan 58] | bind | higher than in the healthy individuals | 
4 | Fa2Ab3Anb3Aa4Ab4G#sp3 Globo-H [Glycan 97] | bind | higher than in the healthy individuals | 
5 | GNb3Ab4Gb#sp1 LNT-2 [Glycan 123] | bind | higher than in the healthy individuals | 
6 | Man-9#aa Man9-aminoacid [Glycan 145] |  |  | 2G12 binding to arrayed glycan [2]: smaller level of binding
7 | NJa6ANa#sp2 Neu5Gc6GalNAc (STn) [Glycan 155] | bind |  | 
8 | NNa6ANa#sp2 6SiaβGalNAc [Glycan 190] | bind | significantly higher levels | 
9 | B1 | bind | significantly higher levels | 
